The CheMixHub viscosity set

Assay: xn = mol fraction of the nth substance listed

Cl.N[C@@H](CS)C(=O)O.O + O
viscosity [mPa·s], 101 kPa
Conditions | 303.15 K | 308.15 K | 313.15 K | 318.15 K | 323.15 K
x1 = 0.01 | 0.8529 | 0.7892 | 0.7275 | 0.6712 | 0.6181
x1 = 0.0122 | 0.9644 | – | 0.795 | – | 0.6742
x1 = 0.02 | 1.126 | 1.023 | 0.9082 | 0.8248 | 0.769
x1 = 0.0272 | 1.2 | – | 0.9836 | – | 0.8276
x1 = 0.04 | 1.506 | 1.356 | 1.273 | 1.112 | 1.018
x1 = 0.0463 | 1.591 | – | 1.288 | – | 1.084
x1 = 0.0579 | 1.877 | – | 1.508 | – | 1.244
x1 = 0.0714 | 2.27 | – | 1.797 | – | 1.49
x1 = 0.08 | 2.486 | 2.237 | 1.968 | 1.785 | 1.594
x1 = 0.0871 | 2.805 | – | 2.191 | – | 1.711
x1 = 0.1 | 3.391 | 2.955 | 2.572 | 2.293 | 2.048
x1 = 0.1057 | 3.602 | – | 2.783 | – | 2.239
x1 = 0.11 | 3.97 | 3.387 | 2.951 | 2.575 | 2.336
x1 = 0.12 | 4.627 | 3.883 | 3.387 | 2.93 | 2.67
x1 = 0.1281 | 5.207 | – | 3.69 | – | 2.906
x1 = 0.13 | 5.349 | 4.451 | 3.878 | 3.35 | 3.052
x1 = 0.14 | 6.119 | 5.101 | 4.426 | 3.833 | 3.483
x1 = 0.15 | 6.915 | 5.842 | 5.027 | 4.408 | 3.963
x1 = 0.1558 | 7.415 | – | 5.463 | – | 4.309
x1 = 0.16 | 7.706 | 6.524 | 5.678 | 5.017 | 4.492
x1 = 0.17 | 8.459 | 7.218 | 6.372 | 5.719 | 5.066
x1 = 0.18 | 9.134 | 8.014 | 7.104 | 6.301 | 5.685
x1 = 0.19 | 9.972 | 8.826 | 7.864 | 7.002 | 6.342
x1 = 0.1903 | 9.687 | – | 7.875 | – | 6.354

COCCOCCOC + CCCO
viscosity [mPa·s]
Conditions | 298.15 K | 308.15 K | 318.15 K
101 kPa, x1 = 0.0121 | 1.856 | 1.451 | –
101 kPa, x1 = 0.0768 | 1.559 | 1.243 | –
101 kPa, x1 = 0.1011 | 1.451 | 1.173 | 0.956
101 kPa, x1 = 0.1288 | 1.399 | 1.144 | –
101 kPa, x1 = 0.1895 | 1.272 | 1.052 | –
101 kPa, x1 = 0.1997 | 1.243 | 1.021 | 0.847
101 kPa, x1 = 0.2359 | 1.213 | 1.004 | –
101 kPa, x1 = 0.2801 | 1.183 | 0.971 | –
101 kPa, x1 = 0.3029 | 1.115 | 0.927 | 0.779
101 kPa, x1 = 0.3162 | 1.133 | 0.951 | –
101 kPa, x1 = 0.3322 | 1.12 | 0.939 | –
101 kPa, x1 = 0.3923 | 1.08 | 0.918 | –
101 kPa, x1 = 0.4025 | 1.046 | 0.878 | 0.743
101 kPa, x1 = 0.4477 | 1.051 | 0.899 | –
101 kPa, x1 = 0.4978 | 1.032 | 0.886 | –
101 kPa, x1 = 0.5004 | 1.01 | 0.852 | 0.729
101 kPa, x1 = 0.5784 | 1.011 | 0.871 | –
101 kPa, x1 = 0.5992 | 0.988 | 0.838 | 0.717
101 kPa, x1 = 0.6325 | 1.003 | 0.854 | –
101 kPa, x1 = 0.6934 | 0.975 | 0.828 | 0.709
101 kPa, x1 = 0.7544 | 0.991 | 0.86 | –
101 kPa, x1 = 0.8004 | 0.971 | 0.825 | 0.709
101 kPa, x1 = 0.813 | 0.991 | 0.862 | –
101 kPa, x1 = 0.8974 | 0.981 | 0.836 | –
101 kPa, x1 = 0.9026 | 0.993 | 0.863 | –
101 kPa, x1 = 0.9638 | 0.996 | 0.867 | –
101 kPa, x2 = 0.0194 | 0.996 | 0.867 | –
101.33 kPa, x1 = 0.0064 | 1.913 | – | –
101.33 kPa, x1 = 0.0122 | 1.881 | – | –
101.33 kPa, x1 = 0.0238 | 1.816 | – | –
101.33 kPa, x1 = 0.0358 | 1.756 | – | –
101.33 kPa, x1 = 0.0546 | 1.671 | – | –
101.33 kPa, x1 = 0.0803 | 1.567 | – | –
101.33 kPa, x1 = 0.1176 | 1.443 | – | –
101.33 kPa, x1 = 0.1632 | 1.333 | – | –
101.33 kPa, x1 = 0.2064 | 1.251 | – | –
101.33 kPa, x1 = 0.2619 | 1.177 | – | –
101.33 kPa, x1 = 0.2976 | 1.14 | – | –
101.33 kPa, x1 = 0.3254 | 1.119 | – | –
101.33 kPa, x1 = 0.3716 | 1.086 | – | –
101.33 kPa, x1 = 0.4168 | 1.065 | – | –
101.33 kPa, x1 = 0.4652 | 1.038 | – | –
101.33 kPa, x1 = 0.5109 | 1.024 | – | –
101.33 kPa, x1 = 0.5509 | 1.009 | – | –
101.33 kPa, x1 = 0.5982 | 0.994 | – | –
101.33 kPa, x1 = 0.6569 | 0.984 | – | –
101.33 kPa, x1 = 0.711 | 0.976 | – | –
101.33 kPa, x1 = 0.7757 | 0.975 | – | –
101.33 kPa, x1 = 0.819 | 0.976 | – | –
101.33 kPa, x1 = 0.8649 | 0.977 | – | –
101.33 kPa, x1 = 0.9094 | 0.984 | – | –
101.33 kPa, x1 = 0.9425 | 0.989 | – | –
101.33 kPa, x1 = 0.9722 | 0.988 | – | –
